The record followed here is patent US20260317356A1, “SMALL MOLECULE MODULATORS OF OGG1” (AZKARRA THERAPEUTICS, INC., priority 2023, published 2026).

The target of the test is hOGG1 (Homo sapiens, UniProt O15527). Kind of test: Biochemical fluorescence assay to measure enzymatic activity of hOGG1 (OGG1/APEX IC50). The conditions noted are these: 1 nM OGG1+2 nM APEX+6 nM dsDNA (8-oxo-dG substrate); pH 7.5; RT 40 min; read-out: OGG1/APEX IC50. More on the design: Protein His-hOGG1 (12-323) was prepared; His (N); host or cells: E. coli. A digest of the protocol: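 His-hOGG1 (12-323, E. coli) at 1 nM with 2 nM hAPE1/APEX1, preincubated 20 min RT with compound. Then 6 nM 8-oxo-dG dsDNA substrate added, 40 min at RT in Tris pH 7.5, 100 mM KCl. TAMRA fluorescence (Ex520/Em600) converted to % inhibition vs controls; IC50 from 3-parameter fit of 10-point curve.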
Sequence of hOGG1 (O15527 12-323): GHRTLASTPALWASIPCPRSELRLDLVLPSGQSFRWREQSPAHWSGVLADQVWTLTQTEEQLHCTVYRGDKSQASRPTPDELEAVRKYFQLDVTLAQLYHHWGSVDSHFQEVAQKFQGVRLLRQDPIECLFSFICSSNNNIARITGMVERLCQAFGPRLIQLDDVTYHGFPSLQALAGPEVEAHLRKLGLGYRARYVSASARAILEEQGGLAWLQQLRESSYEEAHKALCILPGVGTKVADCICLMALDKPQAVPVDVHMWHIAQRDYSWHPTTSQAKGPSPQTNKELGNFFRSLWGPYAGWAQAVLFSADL
Consider `COc1cc(NC(=O)[C@H]2CC[C@@H](N3Cc4c(C)ccc(CN)c4NC3=O)CC2)ccc1C` [Example 58, (1s,4s)-4-(8-(aminomethyl)-5-methyl-2-oxo-1,2-dihydroquinazolin-3(4H)-yl)-N-(3-methoxy-4-methylphenyl)cyclohexanecarboxamide], for which the IC50 was below 100 nM.
Then `COc1cc(NC(=O)[C@H]2CC[C@@H](N3Cc4c(C)ccc(C#N)c4NC3=O)CC2)ccc1C` [Example 59, (1s,4s)-4-(8-cyano-5-methyl-2-oxo-1,2-dihydroquinazolin-3(4H)-yl)-N-(3-methoxy-4-methylphenyl)cyclohexanecarboxamide], with below 100 nM.
Then `COc1cc(NC(=O)[C@H]2CC[C@@H](N3Cc4ccccc4NC3=O)CC2)ccc1C` [Example 67, (1s,4s)-N-(3-methoxy-4-methylphenyl)-4-(2-oxo-1,2-dihydroquinazolin-3(4H)-yl)cyclohexanecarboxamide], with 100 to 1000 nM.
Then `COc1cc(NC(=O)[C@H]2CC[C@@H](N3Cc4c(C)cc(-c5nnco5)cc4NC3=O)CC2)ccc1C` [Example 92, (1s,4s)-N-(3-methoxy-4-methylphenyl)-4-(5-methyl-7-(1,3,4-oxadiazol-2-yl)-2-oxo-1,2-dihydroquinazolin-3(4H)-yl)cyclohexanecarboxamide], with below 100 nM; and `COc1ccc(NC(=O)[C@H]2CC[C@@H](N3Cc4c(C)cc(NCCN(C)C)cc4NC3=O)CC2)cc1C` [Example 97, (1s,4s)-4-(7-(2-(dimethylamino)ethylamino)-5-methyl-2-oxo-1,2-dihydroquinazolin-3(4H)-yl)-N-(4-methoxy-3-methylphenyl)cyclohexanecarboxamide], with below 100 nM.
In the case of `COc1ccc(NC(=O)[C@H]2CC[C@@H](N3Cc4c(C)cc(NCCN(C)C)cc4NC3=O)CC2)cc1C#N` [Example 99, (1s,4s)-N-(3-cyano-4-methoxyphenyl)-4-(7-(2-(dimethylamino)ethylamino)-5-methyl-2-oxo-1,2-dihydroquinazolin-3(4H)-yl)cyclohexanecarboxamide], the IC50 is below 100 nM.
Then `COc1cc(NC(=O)[C@H]2CC[C@@H](N3Cc4c(C)cc(N(C)C)cc4C3=O)CC2)ccc1C` [Example 135, (1s,4s)-4-(6-(Dimethylamino)-4-methyl-1-oxoisoindolin-2-yl)-N-(3-methoxy-4-methylphenyl)cyclohexane-1-carboxamide], with below 100 nM; and `COc1cc(NC(=O)[C@H]2CC[C@@H](N3Cc4c(C)ccc(C#N)c4C3=O)CC2)ccc1C` [Example 143, (1s,4s)-4-(7-Cyano-4-methyl-1-oxoisoindolin-2-yl)-N-(3-methoxy-4-methylphenyl)cyclohexanecarboxamide], with below 100 nM; and `CNCCNc1cc(C)c2c(c1)C(=O)N([C@H]1CC[C@@H](C(=O)Nc3ccc(C)c(OC)c3)CC1)C2` [Example 193, (1s,4s)-N-(3-methoxy-4-methylphenyl)-4-(4-methyl-6-(2-(methylamino)ethylamino)-1-oxoisoindolin-2-yl)cyclohexanecarboxamide], with below 100 nM.
Regarding `COc1ccc(NC(=O)[C@H]2CC[C@@H](N3Cc4c(C)cccc4C3=O)CC2)cc1C` [Example 227, (1s,4s)-N-(4-Methoxy-3-methylphenyl)-4-(4-methyl-1-oxoisoindolin-2-yl)cyclohexanecarboxamide], the IC50 was 100 to 1000 nM.
`COc1ccc(NC(=O)[C@H]2CC[C@@H](N3Cc4c(C)cccc4C3=O)CC2)cc1C#N` [Example 239, (1s,4s)-N-(3-Cyano-4-methoxyphenyl)-4-(4-methyl-1-oxoisoindolin-2-yl)cyclohexanecarboxamide]: the IC50 lay in the range of 100 to 1000 nM.
The figure for `COc1cc(NC(=O)[C@H]2CC[C@@H](N3Cc4c(C)cc(OCCN5CC(F)(F)C5)cc4C3=O)CC2)ccc1C` [Example 255, (1s,4s)-4-(6-(2-(3,3-Difluoroazetidin-1-yl)ethoxy)-4-methyl-1-oxoisoindolin-2-yl)-N-(3-methoxy-4-methylphenyl)cyclohexanecarboxamide] is 100 to 1000 nM; for `COc1ccc(NC(=O)[C@H]2CC[C@@H](N3Cc4c(C)cc(NCCN(C)C)cc4C3=O)CC2)cc1C` [Example 256, (1s,4s)-4-(6-(2-(Dimethylamino)ethylamino)-4-methyl-1-oxoisoindolin-2-yl)-N-(4-methoxy-3-methylphenyl)cyclohexanecarboxamide] it is below 100 nM; for `COc1ccc(NC(=O)[C@H]2CC[C@@H](N3Cc4c(C)cc(NCCN(C)C)cc4C3=O)CC2)cc1C#N` [Example 259, (1s,4s)-N-(3-Cyano-4-methoxyphenyl)-4-(6-(2-(dimethylamino)ethylamino)-4-methyl-1-oxoisoindolin-2-yl)cyclohexanecarboxamide] it is below 100 nM.
Then `COc1ccc(NC(=O)[C@H]2CC[C@@H](N3Cc4c(C)cc(NCCN(C)C)cc4C3=O)CC2)cc1Cl` [Example 260, (1s,4s)-N-(3-Chloro-4-methoxyphenyl)-4-(6-(2-(dimethylamino)ethylamino)-4-methyl-1-oxoisoindolin-2-yl)cyclohexanecarboxamide], with below 100 nM; and `COc1cc(NC(=O)[C@]2(C)CC[C@H](N3Cc4c(C)cccc4C3=O)CC2)ccc1C` [Example 277, (1s,4s)-N-(3-methoxy-4-methylphenyl)-1-methyl-4-(4-methyl-1-oxoisoindolin-2-yl)cyclohexane-1-carboxamide], with 100 to 1000 nM.
